# From ChEMBL document CHEMBL3399982, “Azachalcones: a new class of potent polyphenol oxidase inhibitors” (Bioorg Med Chem Lett, 2015)
# Columns and labels:
# [1] = target: T1, Tyrosinase (Agaricus bisporus) (UniProt O42713); assay: Inhibition of mushroom tyrosinase assessed as inhibition of L-DOPA oxidase activity; conditions: concentration not given here
# T1 sequence (whole entry): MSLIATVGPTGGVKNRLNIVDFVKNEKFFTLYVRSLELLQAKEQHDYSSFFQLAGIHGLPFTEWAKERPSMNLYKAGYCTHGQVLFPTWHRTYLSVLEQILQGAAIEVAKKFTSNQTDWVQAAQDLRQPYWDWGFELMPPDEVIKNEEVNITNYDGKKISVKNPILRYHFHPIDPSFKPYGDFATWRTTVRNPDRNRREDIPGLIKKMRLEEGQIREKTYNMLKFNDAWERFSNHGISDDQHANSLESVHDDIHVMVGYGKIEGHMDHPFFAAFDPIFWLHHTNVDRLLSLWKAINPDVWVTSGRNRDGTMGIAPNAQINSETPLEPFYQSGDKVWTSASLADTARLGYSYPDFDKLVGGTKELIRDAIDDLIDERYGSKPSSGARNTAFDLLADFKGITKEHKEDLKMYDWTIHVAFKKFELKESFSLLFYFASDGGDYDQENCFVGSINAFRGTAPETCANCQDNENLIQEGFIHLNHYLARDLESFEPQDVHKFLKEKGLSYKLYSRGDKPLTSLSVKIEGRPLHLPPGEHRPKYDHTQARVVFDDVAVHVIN
# [2] = target: T2, Tyrosinase (Agaricus bisporus, UniProt O42713); assay: Competitive inhibition of mushroom tyrosinase assessed as inhibition of L-DOPA oxidase activity
# T2 sequence (O42713 whole entry): T1 sequence (whole entry)
# [3] = target: T2, Tyrosinase
SMILES,inhibition [1] [%],IC50 [2] [nM],Ki [3] [nM]
CN(C)c1ccc(/C=C/C(=O)c2ccccc2O)cc1,27.2,,
Oc1ccccc1C(O)/C=C/c1ccncc1 (configuration not stated),57.2,2300,8100
COc1ccc(/C=C/C(=O)c2ccccn2)c(OC)c1,42.7,,
O=C(/C=C/c1ccc2ccccc2n1)c1ccccc1O,8.9,,
Oc1ccccc1C(O)/C=C/c1ccccn1 (configuration not stated),80.2,1700,2620

# More lines, now with the values ahead:
inhibition [1] [%],IC50 [2] [nM],Ki [3] [nM],SMILES
39.7,,,CN(C)c1ccc(/C=C/C(=O)c2ccccn2)cc1
49.3,,,O=C(/C=C/c1cccnc1)c1ccccc1O
39.7,,,O=C(/C=C/c1ccncc1)c1ccccc1O
42.2,,,O=C(/C=C/c1cccc([N+](=O)[O-])c1)c1ccccc1O
12.3,,,O=C(/C=C/c1cnc2ccccc2c1)c1ccccc1O
56.8,,,O=C(/C=C/c1ccccn1)c1ccccc1O
18,,,O=C(/C=C/c1cccc([N+](=O)[O-])c1)c1ccccc1
34,,,O=C(/C=C/c1ccccn1)c1ccccc1
